Experimental data from patent US10947274B1 (priority 2018, dated 2021).

What was measured:
[1] = format: physicochemical
[2] = biological target: human α9α10 nicotinic acetylcholine receptor (nAChR) (human) (UniProt Q9UGM1); assay: cell-based or functional assay
α7 nAChR = α7 nAChR (Rattus norvegicus, UniProt Q05941); settings: cited from earlier work
Sequence of α7 nAChR (Q05941 23-502 limits assumed): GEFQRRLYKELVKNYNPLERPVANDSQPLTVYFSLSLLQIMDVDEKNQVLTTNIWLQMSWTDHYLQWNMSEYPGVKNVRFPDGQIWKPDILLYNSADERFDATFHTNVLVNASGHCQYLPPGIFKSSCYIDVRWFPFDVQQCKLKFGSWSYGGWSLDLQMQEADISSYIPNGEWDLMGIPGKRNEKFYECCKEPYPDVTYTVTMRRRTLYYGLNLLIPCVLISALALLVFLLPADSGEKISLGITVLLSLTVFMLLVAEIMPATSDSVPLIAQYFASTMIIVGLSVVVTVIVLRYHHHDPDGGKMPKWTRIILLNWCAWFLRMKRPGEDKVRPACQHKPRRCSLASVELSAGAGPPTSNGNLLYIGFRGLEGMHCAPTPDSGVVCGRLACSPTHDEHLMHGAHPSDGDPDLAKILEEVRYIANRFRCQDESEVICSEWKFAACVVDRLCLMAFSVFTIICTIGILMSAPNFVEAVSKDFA

Sequence of human α9α10 nicotinic acetylcholine receptor (nAChR) (human) (Q9UGM1 23-479, chain 1 of 2): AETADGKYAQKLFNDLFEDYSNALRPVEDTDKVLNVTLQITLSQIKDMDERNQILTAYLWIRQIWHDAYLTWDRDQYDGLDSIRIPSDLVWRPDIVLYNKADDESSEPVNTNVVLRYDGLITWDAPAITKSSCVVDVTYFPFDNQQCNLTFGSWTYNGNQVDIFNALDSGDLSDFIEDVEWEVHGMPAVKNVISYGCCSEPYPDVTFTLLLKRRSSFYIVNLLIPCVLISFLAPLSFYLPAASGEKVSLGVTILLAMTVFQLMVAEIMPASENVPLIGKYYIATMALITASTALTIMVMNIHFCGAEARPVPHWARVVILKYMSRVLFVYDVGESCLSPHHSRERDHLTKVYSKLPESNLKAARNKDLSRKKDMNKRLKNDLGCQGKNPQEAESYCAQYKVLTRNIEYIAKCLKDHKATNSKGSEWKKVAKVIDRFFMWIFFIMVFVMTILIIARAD
Sequence of human α9α10 nicotinic acetylcholine receptor (nAChR) (human) (Q9GZZ6 25-450, chain 2 of 2, further chain): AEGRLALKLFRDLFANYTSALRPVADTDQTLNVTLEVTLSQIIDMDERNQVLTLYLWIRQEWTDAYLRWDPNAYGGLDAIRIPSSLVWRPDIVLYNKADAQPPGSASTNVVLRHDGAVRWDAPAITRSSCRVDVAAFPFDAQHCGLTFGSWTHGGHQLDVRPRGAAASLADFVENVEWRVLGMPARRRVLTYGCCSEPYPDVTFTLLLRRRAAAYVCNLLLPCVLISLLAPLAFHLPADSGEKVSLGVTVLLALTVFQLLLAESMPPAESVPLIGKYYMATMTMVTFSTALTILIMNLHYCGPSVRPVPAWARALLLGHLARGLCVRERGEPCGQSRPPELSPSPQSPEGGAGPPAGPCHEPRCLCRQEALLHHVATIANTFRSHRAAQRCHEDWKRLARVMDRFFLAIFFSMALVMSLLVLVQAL

Which results are given for GCCTDPRC(Cit)(I-3-Y)QCY [RgIA4]?
area under the curve, % of the total ([1]; at 8 h): 26.3%; share of intact (globular) peptide over time ([1]; pH 7.3): minority component

For [C3Pen;14R]RgIA5 (peptide), which IC50 (nM), block of the acetylcholine response, voltage-clamped Xenopus oocytes [2] is on record?
Its IC50 (nM), block of the acetylcholine response, voltage-clamped Xenopus oocytes is 0.5 nM.

For α-conotoxin ImI, which IC50 (α7 nAChR) is on record?
The IC50 was 69.3 ± 15.5 nM.
